Measured values reported in patent US20120232066A1, “COMPOSITIONS FOR REDUCING RISK OF ADVERSE EVENTS CAUSED BY DRUG-DRUG INTERACTIONS” (priority 2011, published 2012).

Columns and labels:
[1] = Oral administration of Compound KC-17 co-dosed with Compound 109 to rats; oxycodone in plasma; type: in vivo, rat; conditions: KC-17 50 mg/kg
Procedure: At specified time points, blood samples were drawn, harvested for plasma via centrifugation at 5,400 rpm at 4° C. for 5 min, and 100 microliters (μl) plasma transferred from each sample into a fresh tube containing 2 μl of 50% formic acid. The tubes were vortexed for 5-10 seconds, immediately placed in dry ice, and then stored in a −80° C. freezer until analysis by HPLC/MS.

[2] = Oral administration of Compound AM-2 and Compound 109 to rats; amphetamine in plasma; type: in vivo, rat; conditions: suppressing Cmax and delaying Tmax
Source text: Table 10 and FIG. 10 provide amphetamine exposure results for rats administered with Compound AM-2 and with or without a co-dose of trypsin inhibitor.

[3] = Oral administration of Compound PC-1 and SBTI trypsin inhibitor to rats; hydromorphone in blood; conditions: for Cmax (ng/mL HM): hydromorphone in rat blood, PO PC-1 20 mg/kg
Procedure: At specified time points, blood samples were drawn, quenched into methanol, centrifuged at 14,000 rpm @ 4° C., and stored at −80° C. until analysis by high performance liquid chromatography/mass spectrometry (HPLC/MS).

N=C(N)c1ccc2cc(OC(=O)c3ccc(N=C(N)N)cc3)ccc2c1 [Compound 109, 6-carbamimidoylnaphthalen-2-yl 4-(diaminomethyleneamino)benzoate]
effect of Compound 109 on oxycodone release from Compound KC-17 [1]: attenuate release of oxycodone by prodrugs of the embodiments
effect of Compound 109 on amphetamine release from Compound AM-2 [2]: ability to attenuate

CC(=O)NC(CCCNC(=N)N)C(=O)NCCN(C)C(=O)Oc1ccc2c3c1OC1C(=O)CCC4C(C2)N(C)CCC314 (stereo not drawn) [Compound PC-1, Hydromorphone 3-(N-methyl-N-(2-N′-acetylarginylamino)) ethylcarbamate]
Cmax (ng/mL HM) ([3]; SBTI 0 mg/kg): 16.5 ± 5.3 ng/mL
Cmax (ng/mL HM) ([3]; SBTI 10 mg/kg): 8.9 ± 1.8 ng/mL
Cmax (ng/mL HM) ([3]; SBTI 100 mg/kg): 6.0 ± 4.0 ng/mL
Cmax (ng/mL HM) ([3]; SBTI 500 mg/kg): <5 ng/mL
Cmax (ng/mL HM) ([3]; SBTI 1000 mg/kg): <5 ng/mL

B1: SBTI: trypsin inhibitor from Glycine max (soybean) (Catalog No. 93620, ~10,000 units per mg, Sigma-Aldrich) (protein, UniProt P01070 25-205, looked up)
Trypsin inhibitor A: DFVLDNEGNPLENGGTYYILSDITAFGGIRAAPTGNERCPLTVVQSRNELDKGIGTIISSPYRIRFIAEGHPLSLKFDSFAVIMLCVGIPTEWSVVEDLPEGPAVKIGENKDAMDGWFRLERVSDDEFNNYKLVFCPQQAEDDKCGDIGISIDHDDGTRRLVVSKNKPLVVQFQKLDKESL
effect of SBTI on hydromorphone release from Compound PC-1 into blood ([3]; rats PO, PC-1 20 mg/kg and 10, 100, 500 or 1000 mg/kg SBTI): suppresses Cmax and delays Tmax
attenuation of Compound PC-1's ability to release hydromorphone ([3]; rats PO, PC-1 20 mg/kg, at higher SBTI concentrations): approximately 100%
